Source: US20250290117A1, “MOLECULAR PHENOTYPIC ANTIMICROBIAL SUSCEPTIBILITY TESTING” (priority 2024, published 2025)

Tests used:
M. morganii = experiment: Molecular phenotypic antimicrobial susceptibility test, specimen with two detected pathogens incubated together without isolation; assay type: cell-based, Morganella morganii; settings: M. morganii in specimen with two detected pathogens (E. coli and M. morganii) incubated together; for Ct of Sensitive Breakpoint: Ct of controls (average) 19.99; for Molecular Antimicrobial Susceptibility Result: at sensitive breakpoint
Description: Detection of Molecular Phenotypic Antimicrobial Susceptibility. Disclosed herein are the methods for the detection of phenotypic antimicrobial susceptibility via molecular methods. The present invention describes how a specimen 100 with a known microbial load is incubated and then exposed to a panel of antimicrobial agents to determine sensitivity (prevention of growth) or resistance (allowance of growth) to the specific antimicrobial agents tested utilizing molecular methods.
Sample Collection. Specimens 100 are collected from patients using sterile collection processes that are employed in routine clinical care. Specimens are transported to the testing facility in boric acid preservative. Specimens 100 are subsequently divided into a first sample 104 and a second sample 108.
Preparation of the Specimens for Testing. The specimens 100 are put through a pathogen identification process using PCR technology (e.g., using the first sample 104). The process for pathogen isolation includes steps of harvesting the pathogen (e.g., via centrifugation), isolating pathogen DNA via a DNA isolation and/or purification kit, and performing PCR on the pathogen DNA via PCR components (e.g., primers, enzymes, buffers) as would be known to the skilled artisan. Simultaneously, an additional aliquot of the same specimen (e.g., the second sample 108) is placed with liquid culture media and incubated for 4-6 hours. This aliquot is used for antimicrobial susceptibility testing if indicated based on the pathogen detection results. After pathogen identification is completed and if more than 10,000 cells/mL of bacteria (e.g., eligible bacteria) are detected in the source specimen, the second sample 108 then enters the antimicrobial susceptibility phase of testing. Specimens 100 with lower pathogen loads could also be utilized in the antibiotic susceptibility phase of testing with or without a longer incubation period.
Preparation of Antimicrobial Susceptibility Testing Plates. Antimicrobial solutions are prepared at known concentrations. The specific antimicrobials and their concentrations are selected based on the pathogen of interest and the described antimicrobial resistance breakpoints for that specimen pathogen and antimicrobial combination. These antimicrobials have been selected based on those commonly utilized by healthcare providers in routine clinical care for the specific type of suspected infection. The number and types of antimicrobials utilized can be customized based on the infection source, pathogen detected, patient-specific factors such as allergies or other health conditions (e.g., chronic kidney disease or concurrent medication use), or healthcare provider preferences such as antimicrobial availability or cost.
The antimicrobial solutions are prepared in liquid culture media (such as Muller Hinton Broth) to achieve the desired antimicrobial concentration and are then stored at −80° C. until use. For a given specimen, each antimicrobial is tested at a single or multiple antimicrobial concentration(s) which is its established breakpoints for sensitivity. The antimicrobial solutions are prepared and plated out for each specific pathogen. This allows ease of use on the day of testing after defrosting the plate 112. Table 1, which illustrates the results of molecular phenotypic antimicrobial susceptibility testing when more than one organism is present in the source specimen, provides an example of an antimicrobial plate 112 prepared for this purpose. Of note, control wells containing only culture media are present on all plates 112. This allows for evaluation of pathogen load when no antimicrobial is present.
Specimen Exposure to Antimicrobial Agents. The 1 mL aliquot of the specimen 100 previously mixed with culture media and incubated is obtained. Using optical density measurements as a guide, the specimen 100 is diluted to 0.5 McFarland. […]

pathogen of the specimen = experiment: Molecular phenotypic antimicrobial susceptibility test with direct PCR at various incubation timepoints (Table 7); assay type: cell-based
Description: Detection of Molecular Phenotypic Antimicrobial Susceptibility. Disclosed herein are the methods for the detection of phenotypic antimicrobial susceptibility via molecular methods. The present invention describes how a specimen 100 with a known microbial load is incubated and then exposed to a panel of antimicrobial agents to determine sensitivity (prevention of growth) or resistance (allowance of growth) to the specific antimicrobial agents tested utilizing molecular methods. Sample Collection. Specimens 100 are collected from patients using sterile collection processes that are employed in routine clinical care. Specimens are transported to the testing facility in boric acid preservative. […] The process for pathogen isolation includes steps of harvesting the pathogen (e.g., via centrifugation), isolating pathogen DNA via a DNA isolation and/or purification kit, and performing PCR on the pathogen DNA via PCR components (e.g., primers, enzymes, buffers) as would be known to the skilled artisan. […] This aliquot is used for antimicrobial susceptibility testing if indicated based on the pathogen detection results. […] Specimens 100 with lower pathogen loads could also be utilized in the antibiotic susceptibility phase of testing with or without a longer incubation period. […] Antimicrobial solutions are prepared at known concentrations. The specific antimicrobials and their concentrations are selected based on the pathogen of interest and the described antimicrobial resistance breakpoints for that specimen pathogen and antimicrobial combination. These antimicrobials have been selected based on those commonly utilized by healthcare providers in routine clinical care for the specific type of suspected infection. The number and types of antimicrobials utilized can be customized based on the infection source, pathogen detected, patient-specific factors such as allergies or other health conditions (e.g., chronic kidney disease or concurrent medication use), or healthcare provider preferences such as antimicrobial availability or cost. The antimicrobial solutions are prepared in liquid culture media (such as Muller Hinton Broth) to achieve the desired antimicrobial concentration and are then stored at −80° C. until use. For a given specimen, each antimicrobial is tested at a single or multiple antimicrobial concentration(s) which is its established breakpoints for sensitivity. The antimicrobial solutions are prepared and plated out for each specific pathogen. […] This allows for evaluation of pathogen load when no antimicrobial is present. Specimen Exposure to Antimicrobial Agents. The 1 mL aliquot of the specimen 100 previously mixed with culture media and incubated is obtained. Using optical density measurements as a guide, the specimen 100 is diluted to 0.5 McFarland. […] Antimicrobial exposure plates are typically placed into an incubator for 12-16 hours. […] Nucleic Acid Amplification of Antimicrobial Agent Exposed Pathogens. The antimicrobial exposure plate is removed after the period of incubation. The specimen then undergoes a purification or lysis step. For example, the specimen may undergo a purification step (e.g., magnetic bead-based or other separation protocol to isolate genetic material). In another example, the specimen may undergo a cell lysis step. For example, buffer (e.g., lysis buffer) may be added and incubated in the thermal cycler for preparation for direct PCR. Next, the specimen may undergo a polymerase chain reaction (PCR) testing protocol, whereby a semi-quantitative PCR method is utilized. This may be completed either with or without a specific extraction protocol step. The pathogens can be individually targeted and detected, or a universal genetic sequence can be utilized to detect the antimicrobial susceptibility of the specimen as a whole. The control wells are utilized as a threshold for determining antimicrobial sensitivity or resistance. […] Antimicrobial Susceptibility Result Interpretation.

[1] = E. coli isolate 1189, antibiotic incubation time 4 hours
[2] = E. coli isolate 1189, antibiotic incubation time 4 hours, control average Ct […]
[3] = E. coli isolate 1189, antibiotic incubation time 6 hours
[4] = E. coli isolate 1189, antibiotic incubation time 6 hours, control average Ct 16.992
[5] = E. coli isolate 1189, antibiotic incubation time 8 hours
[6] = E. coli isolate 1189, antibiotic incubation time 8 hours, control average Ct […]
[7] = E. coli isolate 1189, antibiotic incubation time 10 hours
[8] = E. coli isolate 1189, antibiotic incubation time 10 hours, control average Ct 15.995
[9] = E. coli isolate 1189, antibiotic incubation time 12 hours
[10] = E. coli isolate 1189, antibiotic incubation time 12 hours, control average Ct 15.495
[11] = E. coli isolate 1189, antibiotic incubation time 14 hours
[12] = E. coli isolate 1189, antibiotic incubation time 14 hours, control average Ct 15.826
[13] = E. coli isolate 1189, antibiotic incubation time 16 hours
[14] = E. coli isolate 1189, antibiotic incubation time 16 hours, control average Ct 14.880

In the case of `CO/N=C(\C(=O)N[C@@H]1C(=O)N2C(C(=O)O)=C(CSc3nc(=O)c(=O)[nH]n3C)CS[C@H]12)c1csc(N)n1` [Ceftriaxone], the “Ct of Sensitive Breakpoint” value (M. morganii) is reported as 30.03, the “Molecular Antimicrobial Susceptibility Result” value (M. morganii) is reported as “Sensitive (Antimicrobial wells with pathogen load detected below the control wells (typically >2 cycle thresholds later) may be reported as Sensitive)” and the “Molecular Antimicrobial Susceptibility Result” value (pathogen of the specimen; [1]) is reported as “Resistant”. For the same compound, the “Ct at Sensitive Breakpoint” value (pathogen of the specimen; [2]) was 16.185, the “Molecular Antimicrobial Susceptibility Result” value (pathogen of the specimen; [3]) was “Resistant” and the “Ct at Sensitive Breakpoint” value (pathogen of the specimen; [4]) was 16.838. The “Molecular Antimicrobial Susceptibility Result” value (pathogen of the specimen; [5]) was “Resistant”, the “Ct at Sensitive Breakpoint” value (pathogen of the specimen; [6]) was 17.431 and the “Molecular Antimicrobial Susceptibility Result” value (pathogen of the specimen; [7]) was “Resistant”. The “Ct at Sensitive Breakpoint” value (pathogen of the specimen; [8]) was 16.347, the “Molecular Antimicrobial Susceptibility Result” value (pathogen of the specimen; [9]) was “Resistant” and the “Ct at Sensitive Breakpoint” value (pathogen of the specimen; [10]) was 16.258. For the same compound, the “Molecular Antimicrobial Susceptibility Result” value (pathogen of the specimen; [11]) was “Resistant”, the “Ct at Sensitive Breakpoint” value (pathogen of the specimen; [12]) was 14.724 and the “Molecular Antimicrobial Susceptibility Result” value (pathogen of the specimen; [13]) was “Resistant”. For the same compound, the “Ct at Sensitive Breakpoint” value (pathogen of the specimen; [14]) was 15.840.
For Piperacillin/Tazobactam, the “Ct of Sensitive Breakpoint” value (M. morganii) was 29.64, the “Molecular Antimicrobial Susceptibility Result” value (M. morganii) was “Sensitive (Antimicrobial wells with pathogen load detected below the control wells (typically >2 cycle thresholds later) may be reported as Sensitive)” and the “Molecular Antimicrobial Susceptibility Result” value (pathogen of the specimen; [1]) was “Sensitive (Antimicrobial wells with pathogen load detected below the control wells (typically >2 cycle thresholds later) may be reported as Sensitive)”. For the same compound, the “Ct at Sensitive Breakpoint” value (pathogen of the specimen; [2]) was 20.904, the “Molecular Antimicrobial Susceptibility Result” value (pathogen of the specimen; [3]) was “Sensitive (Antimicrobial wells with pathogen load detected below the control wells (typically >2 cycle thresholds later) may be reported as Sensitive)” and the “Ct at Sensitive Breakpoint” value (pathogen of the specimen; [4]) was 21.624. The “Molecular Antimicrobial Susceptibility Result” value (pathogen of the specimen; [5]) was “Sensitive (Antimicrobial wells with pathogen load detected below the control wells (typically >2 cycle thresholds later) may be reported as Sensitive)”, the “Ct at Sensitive Breakpoint” value (pathogen of the specimen; [6]) was 21.570 and the “Molecular Antimicrobial Susceptibility Result” value (pathogen of the specimen; [7]) was “Sensitive (Antimicrobial wells with pathogen load detected below the control wells (typically >2 cycle thresholds later) may be reported as Sensitive)”. For the same compound, the “Ct at Sensitive Breakpoint” value (pathogen of the specimen; [8]) was 22.310, the “Molecular Antimicrobial Susceptibility Result” value (pathogen of the specimen; [9]) was “Sensitive (Antimicrobial wells with pathogen load detected below the control wells (typically >2 cycle thresholds later) may be reported as Sensitive)” and the “Ct at Sensitive Breakpoint” value (pathogen of the specimen; [10]) was 22.359. The “Molecular Antimicrobial Susceptibility Result” value (pathogen of the specimen; [11]) was “Sensitive (Antimicrobial wells with pathogen load detected below the control wells (typically >2 cycle thresholds later) may be reported as Sensitive)”, the “Ct at Sensitive Breakpoint” value (pathogen of the specimen; [12]) was 24.257 and the “Molecular Antimicrobial Susceptibility Result” value (pathogen of the specimen; [13]) was “Sensitive (Antimicrobial wells with pathogen load detected below the control wells (typically >2 cycle thresholds later) may be reported as Sensitive)”. For the same compound, the “Ct at Sensitive Breakpoint” value (pathogen of the specimen; [14]) was 24.143.
With `C[C@H]1COc2c(N3CCN(C)CC3)c(F)cc3c(=O)c(C(=O)O)cn1c23` [Levofloxacin] the “Ct of Sensitive Breakpoint” value (M. morganii) was 29.62, the “Molecular Antimicrobial Susceptibility Result” value (M. morganii) was “Sensitive (Antimicrobial wells with pathogen load detected below the control wells (typically >2 cycle thresholds later) may be reported as Sensitive)” and the “Molecular Antimicrobial Susceptibility Result” value (pathogen of the specimen; [1]) was “Sensitive (Antimicrobial wells with pathogen load detected below the control wells (typically >2 cycle thresholds later) may be reported as Sensitive)”. The “Ct at Sensitive Breakpoint” value (pathogen of the specimen; [2]) was 27.130, the “Molecular Antimicrobial Susceptibility Result” value (pathogen of the specimen; [3]) was “Sensitive (Antimicrobial wells with pathogen load detected below the control wells (typically >2 cycle thresholds later) may be reported as Sensitive)” and the “Ct at Sensitive Breakpoint” value (pathogen of the specimen; [4]) was 26.759. The “Molecular Antimicrobial Susceptibility Result” value (pathogen of the specimen; [5]) was “Sensitive (Antimicrobial wells with pathogen load detected below the control wells (typically >2 cycle thresholds later) may be reported as Sensitive)”, the “Ct at Sensitive Breakpoint” value (pathogen of the specimen; [6]) was 27.068 and the “Molecular Antimicrobial Susceptibility Result” value (pathogen of the specimen; [7]) was “Sensitive (Antimicrobial wells with pathogen load detected below the control wells (typically >2 cycle thresholds later) may be reported as Sensitive)”. The “Ct at Sensitive Breakpoint” value (pathogen of the specimen; [8]) was 27.170, the “Molecular Antimicrobial Susceptibility Result” value (pathogen of the specimen; [9]) was “Sensitive (Antimicrobial wells with pathogen load detected below the control wells (typically >2 cycle thresholds later) may be reported as Sensitive)” and the “Ct at Sensitive Breakpoint” value (pathogen of the specimen; [10]) was 26.835. The “Molecular Antimicrobial Susceptibility Result” value (pathogen of the specimen; [11]) was “Sensitive (Antimicrobial wells with pathogen load detected below the control wells (typically >2 cycle thresholds later) may be reported as Sensitive)”, the “Ct at Sensitive Breakpoint” value (pathogen of the specimen; [12]) was 27.545 and the “Molecular Antimicrobial Susceptibility Result” value (pathogen of the specimen; [13]) was “Sensitive (Antimicrobial wells with pathogen load detected below the control wells (typically >2 cycle thresholds later) may be reported as Sensitive)”. For the same compound, the “Ct at Sensitive Breakpoint” value (pathogen of the specimen; [14]) was 27.791.
Ampicillin/Sulbactam was tested, and the “Ct of Sensitive Breakpoint” value (M. morganii) was 22.00 and the “Molecular Antimicrobial Susceptibility Result” value (M. morganii) was “Sensitive (Antimicrobial wells with pathogen load detected below the control wells (typically >2 cycle thresholds later) may be reported as Sensitive)”.
`C[C@@H]1O[C@@H]1P(=O)(O)O` [Fosfomycin] was tested, and the “Ct of Sensitive Breakpoint” value (M. morganii) was 33.43 and the “Molecular Antimicrobial Susceptibility Result” value (M. morganii) was “Sensitive (Antimicrobial wells with pathogen load detected below the control wells (typically >2 cycle thresholds later) may be reported as Sensitive)”.
With `CN(C)[C@@H]1C(O)=C(C(N)=O)C(=O)[C@@]2(O)C(O)=C3C(=O)c4c(O)cccc4[C@@](C)(O)[C@H]3C[C@@H]12` [Tetracycline] the “Ct of Sensitive Breakpoint” value (M. morganii) was 31.64 and the “Molecular Antimicrobial Susceptibility Result” value (M. morganii) was “Sensitive (Antimicrobial wells with pathogen load detected below the control wells (typically >2 cycle thresholds later) may be reported as Sensitive)”.
